Biological target: T1, SoIPMDH (3-isopropylmalate dehydrogenase from Shewanella oneidensis MR-1) (Shewanella oneidensis, UniProt Q8E9N3)
T1 construct: gene leuB; N-terminally His6-tagged (pQE-80L, BamHI/HindIII), expressed in E. coli BL21-CodonPlus(DE3)-RIL; tag removal not mentioned; homodimer
Assay: X-ray crystallography of the complex
Type: binding
Conditions: active site, closed dimer; calcium in active site; 10 mM IPM, 10 mM MgCl2, 200 mM calcium acetate, pH 7.0, room temperature, 0.1 MPa (also 160-650 MPa: 3vl2, 3vl3, 3vl4, 3vl6, 3vl7)

T1 sequence (Q8E9N3 2-364): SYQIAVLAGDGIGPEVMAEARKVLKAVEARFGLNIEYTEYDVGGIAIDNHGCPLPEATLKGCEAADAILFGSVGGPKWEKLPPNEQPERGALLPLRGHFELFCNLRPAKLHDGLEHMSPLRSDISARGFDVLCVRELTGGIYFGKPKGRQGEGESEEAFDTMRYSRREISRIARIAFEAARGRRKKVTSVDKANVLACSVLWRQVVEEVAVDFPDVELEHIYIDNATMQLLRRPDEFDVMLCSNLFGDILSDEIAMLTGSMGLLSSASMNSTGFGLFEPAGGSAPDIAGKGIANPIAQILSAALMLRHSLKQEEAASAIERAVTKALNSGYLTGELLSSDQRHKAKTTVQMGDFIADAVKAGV

For CC(C)[C@H](C(=O)O)[C@@H](O)C(=O)O [3-isopropylmalate], the “X-ray crystallography of the complex” value was “the SoIPMDH dimer was crystallized in complex with its substrate, the IPM molecule”.
